Measured values from patent US10774054B2, “FXR (NR1H4) modulating compounds” (Gilead Sciences, Inc., priority 2016, dated 2020).

Key:
[1] = Metabolite ID assay in human liver microsomes; format: in vitro ADME; settings: human liver microsomes 1 mg/mL, 1 mM NADPH, 5 μM substrate, 0, 30, 60 minutes
Method: The metabolic stability of Example 3 and Comparative Example 1 in human liver microsmoes was conducted according to the following procedure. Human liver microsomes (35 μL protein concentration 20 mg/mL), 350 μL of 100 mM potassium phosphate buffer (pH 7.4), 245 μL of deionized water and 0.7 μL of compound stock solution (5 mM) were combined in a 1.5 mL microcentrifuge tube. The tube was sealed and gently vortexed for 10 seconds, then placed in an Eppendorf ThermoMixer C and pre-warmed at 37° C. with shaking at 1100 rpm for 5 minutes.
NADPH solution (70 μL; 10 mM in water) was added while shaking, the mixture was aspirated several times with pipet, and 200 μL was removed to a fresh 1.5 mL microcentrifuge tube on ice containing 200 μL of cold acetonitrile. […]
The chilled aliquots were centrifuged at 14,300 rpm in a microcentrifuge for 10 minutes at 10° C., then the supernatant was transferred to a deepwell (1 mL) 96 well plate and sealed with a silicon mat. […] 20 μL samples were analyzed by UPLC-MS in order to identify and quantify the metabolites (Agilent 1290 G4220 binary pump UPLC with Agilent G1316 TCC column oven; Waters Acquity UPLC BEH C18 (130 Å pore size, 1.7 μm particle size, 2.1×50 mm) column held at 40° C.; Agilent 1290 G4212 DAD diode array with wavelength range 190 to 400 nm; Thermo Electron Orbitrap Elite mass spectrometer in FTMS positive mode). […]

[2] = Drug concentration in plasma of Cynomolgus monkey after oral dosing; format: in vivo; settings: 300 mg/kg
Excerpt: Each dosing group consisted of three male Cynomolgus monkeys.

| formation of diol metabolite M1 [1] | maximal plasma AUC of the two compounds compared [2] | SMILES |
| --- | --- | --- |
| metabolized to a diol compound (M1) | – | O=C(O)c1cnc(N2CC(O)(c3ccc(OCc4c(-c5c(Cl)cccc5Cl)noc4C4CC4)cc3Cl)C2)c(F)c1 [Comparative Example 1] |
| – | comparable | O=C(O)c1cnc(N2CC(O)(c3ccc(OCc4c(-c5c(Cl)cc(F)cc5Cl)noc4C4CC4)cc3Cl)C2)c(F)c1 [Example 3, 6-(3-(2-chloro-4-((5-cyclopropyl-3-(2,6-dichloro-4-fluorophenyl)isoxazol-4-yl)methoxy)phenyl)-3-hydroxyazetidin-1-yl)-5-fluoronicotinic acid] |
